These results are taken from US8288370B2, “Substituted azetidine compounds of formula (I) useful in the treatment of functional gastrointestinal disorders, IBS, and functional dyspepsia” (Albireo AB, priority 2005, dated 2012).

For data set [1], the system named is Human Neurokinin-2 (NK2) Receptor. To be noted: literature statement; cited from earlier work.
The target of the next data set is CYP3A4 (Homo sapiens, UniProt P08684). Description: CYP3A4 inhibition assay (Bapiro et al.). The class given is in vitro ADME. From the text:
It is well known that severe problems such as toxicity may occur if plasma levels of one medication are altered by the co-administration of another drug. […] CYP (cytochrome P450) 3A4 is the most important enzyme in the human liver as a majority of oxidised drugs have been biotransformed by this enzyme. Accordingly, it is undesirable to employ a medication having a significant degree of such liver enzyme inhibiting properties. […] Thus, there is a need for a novel NK receptor antagonist with improved pharmacokinetic properties. The present invention provides compounds with CYP3A4 enzyme inhibiting properties at a low level, as comparatively high IC50 values are obtained in a CYP3A4 inhibiting assay. Said method for determining CYP3A4 inhibition is described in Bapiro et al; Drug Metab. Dispos. 29, 30-35 (2001).
The IC50 values tested according to Bapiro et al; Drug Metab. Dispos. 29, 30-35 (2001) were generally greater than 15 μM.

The target of another data set is T1, human NK3 receptor (Homo sapiens, UniProt P29371).
T1 construct: expressed in transfected cells; hNK3R in pcDNA 3.1/Hygro (+)/IRES/CD8
T1 sequence (P29371 1-465): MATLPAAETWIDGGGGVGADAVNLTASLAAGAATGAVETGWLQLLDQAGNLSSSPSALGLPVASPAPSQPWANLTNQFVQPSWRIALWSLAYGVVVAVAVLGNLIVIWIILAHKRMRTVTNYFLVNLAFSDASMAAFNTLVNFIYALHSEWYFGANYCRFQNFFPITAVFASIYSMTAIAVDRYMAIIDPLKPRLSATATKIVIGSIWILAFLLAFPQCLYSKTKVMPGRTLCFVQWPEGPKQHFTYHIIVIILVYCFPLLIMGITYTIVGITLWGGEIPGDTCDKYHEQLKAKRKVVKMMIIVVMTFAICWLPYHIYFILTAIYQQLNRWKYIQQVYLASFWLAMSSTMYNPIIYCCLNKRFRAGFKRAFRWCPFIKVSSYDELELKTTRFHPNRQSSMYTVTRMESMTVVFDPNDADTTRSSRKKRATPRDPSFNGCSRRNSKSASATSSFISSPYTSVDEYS
In words: FLIPR assay, inhibition of human NK3 receptor activation (intracellular Ca2+ increase). The class given is cell-based. The note with it: CHO cells with human NK3 receptor, agonist Pro-7-NKB; pKB converted from IC50. The procedure: (§1) Chinese Hamster Ovary (CHO) K1 cells (obtained from ATCC) were stably transfected with the human NK2 receptor (hNK2R cDNA in pRc/CMV, Invitrogen) or the human NK3 receptor (hNK3R in pcDNA 3.1/Hygro (+)/IRES/CD8, Invitrogen vector modified at AstraZeneca EST-Bio UK, Alderley Park). The cells were transfected with the cationic lipid reagent LIPOFECTAMINE™ (Invitrogen) and selection was performed with Geneticin (G418, Invitrogen) at 1 mg/ml for the hNK2R transfected cells and with Hygromycin (Invitrogen) at 500 μg/ml for the hNK3R transfected cells. Single cell clones were collected by aid of Fluorescence Activated Cell Sorter (FACS), tested for functionality in a FLIPR assay (see below), expanded in culture and cryopreserved for future use. CHO cells stably transfected with human NK1 receptors originates from AstraZeneca R&D, Wilmington USA. Human NK1 receptor cDNA (obtained from RNA-PCR from lung tissue) was subcloned into pRcCMV (Invitrogen). Transfection was performed by Calcium Phosphate and selection with 1 mg/ml G418. […]
(§2) The activity of a compound of the invention to inhibit NK1/NK2/NK3 receptor activation measured as NK1/NK2/NK3 receptor mediated increase in intracellular Ca^2+ was assessed by the following procedure: […]

Data set [2] has as its target hERG-encoded potassium channel (Homo sapiens, UniProt Q12809). Description: Activity against hERG (planar-array-based voltage clamp, Kiss et al.). The class given is cell-based. The source says:
The activity of compounds according to formula I against the hERG-encoded potassium channel can be determined according to Kiss L, et al. Assay Drug Dev Technol. 1 (2003), 127-35: “High throughput ion-channel pharmacology: planar-array-based voltage clamp”.

A further data set concerns the target T2, human NK2 receptor (Homo sapiens, UniProt P21452).
T2 construct: expressed in transfected cells; hNK2R cDNA in pRc/CMV
T2 sequence (P21452 1-398): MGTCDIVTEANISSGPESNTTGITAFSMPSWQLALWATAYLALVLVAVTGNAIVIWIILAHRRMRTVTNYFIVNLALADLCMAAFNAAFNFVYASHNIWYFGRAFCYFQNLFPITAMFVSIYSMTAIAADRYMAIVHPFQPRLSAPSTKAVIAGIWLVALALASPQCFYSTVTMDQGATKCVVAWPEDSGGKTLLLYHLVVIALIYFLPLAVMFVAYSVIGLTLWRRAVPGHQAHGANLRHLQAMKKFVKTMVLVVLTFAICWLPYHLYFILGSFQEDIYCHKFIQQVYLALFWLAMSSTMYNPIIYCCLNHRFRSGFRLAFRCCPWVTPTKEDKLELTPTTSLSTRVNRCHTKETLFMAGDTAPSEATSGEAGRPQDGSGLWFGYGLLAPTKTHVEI
Description: FLIPR assay, inhibition of human NK2 receptor activation (intracellular Ca2+ increase). It is filed as cell-based. To be noted: CHO cells with human NK2 receptor, agonist NKA; pKB converted from IC50. The procedure: as §1, §2

In another data set the target is T3, human NK1 receptor (Homo sapiens, UniProt P25103).
T3 construct: expressed in transfected cells; cDNA in pRcCMV
Description: FLIPR assay, inhibition of human NK1 receptor activation (intracellular Ca2+ increase). The class given is cell-based. The note with it: CHO cells with human NK1 receptor, agonist Substance P; pKB converted from IC50. The procedure: as §1, §2

The nature of data set [3]: Metabolic stability in liver microsomes (intrinsic clearance). It is filed as in vitro ADME. To be noted: human, pH 7.4, HLM. The procedure: The rate of biotransformation can be measured as either metabolite(s) formation or the rate of disappearance of the parent compound. The experimental design involves incubation of low concentrations of substrate (usually 1.0 μM) with liver microsomes (usually 0.5 mg/ml) and taking out aliquotes at varying time points (usually 0, 5, 10, 15, 20, 30, 40 min.). The test compound is usually dissolved in DMSO. The DMSO concentration in the incubation mixture is usually 0.1% or less since more solvent can drastically reduce the activities of some CYP450s. Incubations are done in 100 mM potassium phosphate buffer, pH 7.4 and at 37° C. Acetonitrile or methanol is used to stop the reaction. The parent compound is analysed by HPLC-MS. From the calculated half-life, t1/2, the intrinsic clearance, Clint, is estimated by taking microsomal protein concentration and liver weight into account.

Where a name gives a salt, the structure may show the parent alone. Where only a bound is given, the exact number is not on record here.

For orientation: IC50 means the midpoint of a concentration-inhibition curve. A higher IC50 goes with a need for much substance. In general, microsomal CLint refers to a measure of how fast metabolising enzymes remove a compound, apart from limits set by blood flow. A low value points to slow turnover.

Chain of hERG-encoded potassium channel (Q12809 whole entry): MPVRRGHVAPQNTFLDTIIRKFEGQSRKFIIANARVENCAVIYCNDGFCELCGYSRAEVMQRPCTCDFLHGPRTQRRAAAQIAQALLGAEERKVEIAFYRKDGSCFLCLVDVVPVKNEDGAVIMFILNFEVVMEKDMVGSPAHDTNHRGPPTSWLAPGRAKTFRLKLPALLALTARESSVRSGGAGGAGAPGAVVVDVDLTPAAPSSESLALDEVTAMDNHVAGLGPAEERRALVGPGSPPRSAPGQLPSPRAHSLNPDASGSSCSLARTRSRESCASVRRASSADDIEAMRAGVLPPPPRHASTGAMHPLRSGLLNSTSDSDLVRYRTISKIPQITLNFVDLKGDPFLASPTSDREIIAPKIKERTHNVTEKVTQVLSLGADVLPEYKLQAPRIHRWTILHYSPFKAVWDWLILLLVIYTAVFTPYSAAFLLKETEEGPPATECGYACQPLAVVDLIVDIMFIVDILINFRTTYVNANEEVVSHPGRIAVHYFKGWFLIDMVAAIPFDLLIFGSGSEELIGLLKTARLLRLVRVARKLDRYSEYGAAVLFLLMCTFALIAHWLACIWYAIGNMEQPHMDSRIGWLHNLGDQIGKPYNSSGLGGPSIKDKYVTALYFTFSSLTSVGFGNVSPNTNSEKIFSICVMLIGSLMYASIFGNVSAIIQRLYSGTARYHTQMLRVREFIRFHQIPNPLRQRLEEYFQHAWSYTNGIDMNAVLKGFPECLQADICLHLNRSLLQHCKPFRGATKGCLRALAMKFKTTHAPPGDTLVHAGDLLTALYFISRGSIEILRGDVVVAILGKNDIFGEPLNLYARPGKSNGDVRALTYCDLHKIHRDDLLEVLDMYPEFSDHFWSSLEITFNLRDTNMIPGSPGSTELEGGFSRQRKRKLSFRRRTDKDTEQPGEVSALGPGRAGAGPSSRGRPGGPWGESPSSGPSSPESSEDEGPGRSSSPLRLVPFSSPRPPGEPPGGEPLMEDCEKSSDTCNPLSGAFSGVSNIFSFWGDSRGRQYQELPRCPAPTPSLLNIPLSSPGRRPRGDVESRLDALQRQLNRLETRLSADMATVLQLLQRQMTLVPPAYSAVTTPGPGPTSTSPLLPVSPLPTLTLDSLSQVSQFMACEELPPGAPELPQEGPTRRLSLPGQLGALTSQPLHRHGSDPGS
Chain of CYP3A4 (P08684 whole entry): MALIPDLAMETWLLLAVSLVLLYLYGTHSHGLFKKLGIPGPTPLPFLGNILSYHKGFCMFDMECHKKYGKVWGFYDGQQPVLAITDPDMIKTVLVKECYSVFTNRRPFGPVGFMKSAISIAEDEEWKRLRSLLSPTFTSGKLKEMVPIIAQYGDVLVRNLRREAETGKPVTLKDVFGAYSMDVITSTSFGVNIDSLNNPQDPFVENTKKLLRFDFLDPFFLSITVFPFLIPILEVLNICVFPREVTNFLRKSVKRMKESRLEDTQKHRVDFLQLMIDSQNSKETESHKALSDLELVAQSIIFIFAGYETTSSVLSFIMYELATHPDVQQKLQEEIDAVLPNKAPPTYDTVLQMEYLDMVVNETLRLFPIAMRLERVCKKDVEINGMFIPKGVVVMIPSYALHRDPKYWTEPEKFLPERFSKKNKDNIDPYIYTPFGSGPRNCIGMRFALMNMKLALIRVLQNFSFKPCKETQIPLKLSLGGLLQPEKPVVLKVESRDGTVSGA
T3 sequence (P25103 whole entry): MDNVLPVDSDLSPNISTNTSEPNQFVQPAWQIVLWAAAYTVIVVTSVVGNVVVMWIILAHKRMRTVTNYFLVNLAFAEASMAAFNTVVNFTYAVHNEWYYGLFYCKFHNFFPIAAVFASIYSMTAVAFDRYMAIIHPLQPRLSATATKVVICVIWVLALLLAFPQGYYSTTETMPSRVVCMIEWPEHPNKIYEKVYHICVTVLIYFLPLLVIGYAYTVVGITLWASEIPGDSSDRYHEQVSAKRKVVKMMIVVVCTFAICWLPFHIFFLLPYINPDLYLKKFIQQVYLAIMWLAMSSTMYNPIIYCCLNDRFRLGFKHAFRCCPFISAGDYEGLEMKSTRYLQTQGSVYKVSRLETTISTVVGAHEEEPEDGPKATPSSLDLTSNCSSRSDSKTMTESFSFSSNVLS

Turning to `CN(CC(CCN1CC(N2CCOCC2)C1)c1ccc(Cl)c(Cl)c1)C(=O)c1ccccc1` (stereo not shown) [N-[2-(3,4-dichlorophenyl)-4-(3-morpholin-4-ylazetidin-1-yl)butyl]-N-methylbenzamide], the “functional NK2 receptor antagonistic properties” value in data set [1] is given as “possess functional NK2 receptor antagonistic properties”.

Turning to `CN(C[C@@H](CCN1CC(N2CCN3C(=O)CC[C@@H]3C2)C1)c1ccc(F)cc1)C(=O)c1cc(Br)cc(C(F)(F)F)c1` [Ex 1, 3-Bromo-N-((2S)-2-(4-fluorophenyl)-4-{3-[(8aR)-6-oxohexahydropyrrolo[1,2-a]pyrazin-2(1H)-yl]azetidin-1-yl}butyl)-N-methyl-5-(trifluoromethyl)benzamide dihydrochloride], the IC50 was over 50 µM against CYP3A4 and 12.4 µM in data set [2]. In addition, the Kb at human NK3 receptor is 3.16 nM; on human NK2 receptor it was 15.8 nM; on human NK1 receptor, 2 nM. Further, the microsomal CLint at 1 μM in data set [3] was determined as 14 µL/min/mg.
